Experimental data: patent US20250134898A1, “USE OF MELANOCORTIN-4 RECEPTOR AGONIST IN PREVENTING OR TREATING RARE GENETIC OBESITY DISEASE” (LG CHEM, LTD., priority 2022, published 2025)

Experiments:
[1] = tested on: Pomc homozygous knock-out mice; test: Anti-obesity efficacy in high fat diet POMC homozygous deficient mouse model; format: in vivo; details: 45 kcal % high-fat diet, 10 mg/kg or 30 mg/kg for about 10 days, FIG. 2
Description: Pomc homozygous knock-out mice, in which the Pomc gene encoding proopiomelanocortin (POMC) is not expressed, were administered with the test compound at a dose of 10 mg/kg or 30 mg/kg for about 10 days while fed a 45 kcal % high-fat diet (diet with 45 kcal % fat) to determine the anti-obesity efficacy, and the results are shown in FIG. 2.

[2] = tested on: Pomc heterozygous knock-out mice; test: Anti-obesity efficacy in high fat diet POMC heterozygous deficient mouse model; format: in vivo; details: 60 kcal % high-fat diet, 10 mg/kg or 30 mg/kg for about 3 weeks, FIG. 1
Description: Pomc heterozygous knock-out mice, in which the Pomc gene encoding proopiomelanocortin (POMC) is not normally expressed, were fed a 60 kcal % high-fat diet (diet with 60 kcal % fat), while administering N-((3S,5S)-1-((3S,4R)-1-(tert-butyl)-4-(4-chlorophenyl)pyrrolidine-3-carbonyl)-5-(morpholine-4-carbonyl)pyrrolidin-3-yl)-N-((1s,4R)-4-methylcyclohexyl)isobutyramide hydrochloride (hereinafter referred to as “test compound”) obtained from the example of preparation at a dose of 10 mg/kg or 30 mg/kg for about 3 weeks to determine the anti-obesity efficacy, and the results are shown in FIG. 1.

Compound: CC(C)C(=O)N([C@H]1C[C@@H](C(=O)N2CCOCC2)N(C(=O)[C@@H]2CN(C(C)(C)C)C[C@H]2c2ccc(Cl)cc2)C1)[C@H]1CC[C@@H](C)CC1.Cl [test compound, N-((3S,5S)-1-((3S,4R)-1-(tert-butyl)-4-(4-chlorophenyl)pyrrolidine-3-carbonyl)-5-(morpholine-4-carbonyl)pyrrolidin-3-yl)-N-((1s,4R)-4-methylcyclohexyl)isobutyramide hydrochloride]
- anti-obesity efficacy [1]: excellent anti-obesity effects
- anti-obesity efficacy [2]: excellent anti-obesity effects
